Data published in patent US20170049843A1, “Hepatocyte Growth Factor Mimics as Therapeutic Agents” (WASHINGTON STATE UNIVERSITY, priority 2011, published 2017).
“Also recorded” adds a separate entry of the source. Like-named read-outs stand apart in the source and are kept apart here. Where a SMILES comes first, the peptide text is derived from it. [ ]: non-standard residue; d: D form. The star is where a group is joined. Hexanoyl = CCCCCC(=O)*; Ahx = NCCCCCC(=O)O

Assays:
6-OHDA rat = experiment: 6-OHDA lesioned rat, motor tests; type: in vivo
Method: FIG. 48. Dihexa restores performance in the rope hang test. After 2 weeks of 6-OHDA lesion, rats were treated with either 0.5 mg/kg or equivalent volumes of the vehicle ip.
FIG. 49. […] Baseline was calculated from 4 naïve animals to get the pre-op baseline for normal un-lesioned animals. 2 animals were lesioned with 6-OHDA in the right Hemisphere. 14 days post-op, treatment with vehicle started. 2 animals were lesioned with 6-OHDA in the right Hemisphere. 14 days post-op, treatment with Dihexa started. Animals were tested every other day. Dosing regimen (2 mg/kg by oral gavage/48 hrs).

MDCK cells = experiment: Augmentation of HGF-dependent cell scattering in MDCK cells; type: cell-based, canine
Method: HGF mimetic activity was typically assessed by one or both of two methods: augmentation of HGF-dependent c-Met phosphorylation in HEK293 cells, or 2) augmentation of HGF-dependent cell scattering in MDCK cells. All the compounds in Family one were tested using the c-Met phosphorylation assay. […]
MDCK cells were grown to 100% confluency on the coverslips in six-well plates and washed twice with PBS. The confluent coverslips were then aseptically transferred to new six well plates containing 900 μl serum free DMEM. Norleual, Hinge peptide, and/or HGF (2.5 ng/ml) were added to appropriate wells. Control wells received PBS vehicle. Plates were incubated at 37° C. with 5% CO2 for 48 hours. Media was removed and cells were fixed with methanol. Cells were stained with Diff-Quik Wright-Giemsa (Dade-Behring, Newark, Del.) and digital images were taken. Coverslips were removed with forceps and more digital images were captured. Pixel quantification of images was achieved using Image J and statistics were performed using Prism 5 and InStat v.3.05.

hippocampal neurons = experiment: Protection of hippocampal neurons from oxidative stress (H2O2); type: cell-based; conditions: 100 μM H2O2, 24 hrs, +/− HGF sub-threshold
Method: FIG. 47. […] Dissociated hippocampal neurons were treated with 100 μM H2O2 for 24 hrs+/−HGF at sub-threshold concentrations […] and or Dihexa at 2 different concentrations 10^−8M and 10^−8M. (+p<0.05, ++p<0.0I; Mean+/−SEM).

[1] = Microsomal metabolism, rat liver microsomes; type: in vitro ADME; conditions: pooled rat liver microsomes, n=3
[2] = Brain uptake of 3H-dihexa after carotid infusion; type: in vivo, rat; conditions: 30 minutes after infusion
Method: FIG. 32. […] Rats fitted with a carotid cannula were anesthetized and infused with 0.5 ml of isotonic saline containing 10 μCi of ^3H-dihexa and 2 μCi ^14C-Inulin, a vascular marker. Thirty minutes after infusion the rats were decapitated, the brains removed, and various brain regions dissected. The tissues were then weighed and solubilized with NCS, an organic protein solubilizing agent, and 10 ml of scintillation was added. Samples were counted with a scintillation counter using two different windows to quantitate both ^3H and ^14C counts. ^3H/^14C ratios were determined so that blood derived dihexa contamination of tissues could be determined. […] The average ^3H/^14C for blood was 1687. Mean+/−S.E.M.: n=4.

Blood stability studies = type: in vitro ADME, rat; conditions: data not shown
scopolamine treated rats = experiment: Morris water maze, scopolamine amnesia model; type: in vivo, rat
aged rats = experiment: Morris water maze, aged rat model; type: in vivo; conditions: oral 2 mg/kg/day, 8 days, vs untreated
Method: FIG. 37. Dihexa improves spatial learning in aged rats. Group latencies to find the submerged platform in the Morris water maze task of spatial memory are shown. Five minutes before beginning testing 24 month old mixed sex (3 male and 3 female/group) Sprague Dawley rats were administered […] (2 mg/kg) orally by gavage (suspension in isotonic NaCl), on a daily basis. There were 5 trials per day for 8 days. The latency to find the pedestal was considered a measure of learning and memory. […] Swim speed was determined from these values.

HGF = target: T1, HGF (Homo sapiens, UniProt P14210); experiment: HGF dimerization; type: biochemical; conditions: Dihexa, 30 minutes in the presence of heparin
T1 construct: purchased R&D Systems (Minneapolis, Minn.)
T1 sequence (P14210 32-728): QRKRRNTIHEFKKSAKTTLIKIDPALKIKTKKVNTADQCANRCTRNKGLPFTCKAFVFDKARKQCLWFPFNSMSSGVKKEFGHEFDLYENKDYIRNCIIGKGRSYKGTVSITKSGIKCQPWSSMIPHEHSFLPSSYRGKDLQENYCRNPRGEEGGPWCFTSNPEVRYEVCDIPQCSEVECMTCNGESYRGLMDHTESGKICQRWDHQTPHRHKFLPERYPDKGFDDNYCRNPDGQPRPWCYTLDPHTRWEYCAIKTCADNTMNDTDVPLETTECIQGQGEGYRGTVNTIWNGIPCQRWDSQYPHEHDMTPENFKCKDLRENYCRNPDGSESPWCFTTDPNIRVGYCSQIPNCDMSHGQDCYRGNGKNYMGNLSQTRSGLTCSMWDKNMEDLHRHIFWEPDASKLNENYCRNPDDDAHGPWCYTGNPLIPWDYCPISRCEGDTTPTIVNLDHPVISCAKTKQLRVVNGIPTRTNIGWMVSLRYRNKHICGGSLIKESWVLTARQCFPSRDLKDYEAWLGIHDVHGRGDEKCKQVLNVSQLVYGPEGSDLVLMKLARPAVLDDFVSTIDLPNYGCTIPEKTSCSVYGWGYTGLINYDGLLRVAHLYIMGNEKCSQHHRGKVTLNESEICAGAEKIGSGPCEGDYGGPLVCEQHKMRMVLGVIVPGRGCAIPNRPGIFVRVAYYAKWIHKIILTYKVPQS
Method: HGF dimerization was assessed using PAGE followed by silver staining (Kawas et al., 2011). Human HGF at a concentration of 0.08 ng/μl with or without 6-AH analogs was incubated with heparin at a final concentration of 5 μg/ml. Loading buffer was then added to each sample and the mixture separated by native PAGE using gradient Criterion XT precast gels (4-12% Bis-Tris; Biorad Laboratories, Hercules, Calif.). Next the gel was silver stained for the detection of the HGF monomers and dimers. Bands were quantitated from digital images using a UVP phosphoimager (Upland, Calif.).

[3] = icv, scopolamine 70 nmol, Dihexa 300 pmol, Hinge 300 pmol, vehicle 43.0 s

For CCCCCC(=O)N[C@@H](Cc1ccc(O)cc1)C(=O)N[C@H](C(=O)NCCCCCC(N)=O)[C@@H](C)CC [Dihexa, N-hexanoic-Tyr-Ile-(6)-aminohexanoic amide] (Hexanoyl-Tyr-Ile-[Ahx]-NH2), the “performance in the rope hang test” value (6-OHDA rat; 0.5 mg/kg ip, 2 weeks after 6-OHDA lesion) was “completely restored the performance”, the “motor deficits in the 6-OHDA rat” value (6-OHDA rat; 2 mg/kg by oral gavage/48 hrs, from 14 days post-op) was “reverses motor deficits” and the “augmentation of HGF-dependent MDCK cell scattering” value (MDCK cells) was “stimulate MDCK cell scattering”. For the same compound, the “augmentation of HGF-dependent MDCK cell scattering” value (MDCK cells; listed as N-hexanoyl-Tyr-Ile-(6) aminohexamide) was “spectacularly augment HGF-dependent MDCK cell scattering”, the “protection of neurons from oxidative stress” value (hippocampal neurons) was “protects neurons from oxidative stress” and the “average half-life, Phase I metabolism” value [1] was 8.49 h. The “average intrinsic clearance (Clin)” value [1] was 2.72 µL/min/mg, the “concentration of dihexa in brain regions compared to blood” value ([2]; 3H/14C ratios) was “all brain regions concentrated dihexa” and the “average 3H/14C ratio for blood” value ([2]; 10 μCi 3H-dihexa and 2 μCi 14C-Inulin, n=4) was 1687. For the same compound, the “stable in the blood” value (Blood stability studies) was “over 5 hours”, the “latency to find the pedestal in the water maze (reversal of scopolamine deficits)” value (from here on “latency … (reversal of scopolamine deficits)”) (scopolamine treated rats; ICV 10 pmoles (low dose)) was “but not 10 pmoles” and the “latency … (reversal of scopolamine deficits)” value (scopolamine treated rats; ICV 100 pmoles (high dose), daily, 8 days) was “reversed scopolamine-dependent learning deficits; also recorded: completely overcome the scopolamine deficits”. The “group latency to find the submerged platform” value (“group latency” for short) (scopolamine treated rats; icv 0.1 nmol after scopolamine, days 5-8) was “significantly improved performance”, the “group latency” value (scopolamine treated rats; icv 1 nmol after scopolamine) was “different from the scopolamine group” and the “time in the target quadrant, day 9 probe trial” value (“time in the target quadrant” below) (scopolamine treated rats; icv 1 nmol after scopolamine, vs vehicle control) was “not different”. The “mean latency to find the pedestal, final day of training” value (scopolamine treated rats; [3]) was 62.3 s, the “mean latency to find the pedestal, fourth day of training” value (scopolamine treated rats; [3]) was 63.0 s and the “mean latency to find the pedestal, day one of training” value (scopolamine treated rats; icv, scopolamine 70 nmol, Dihexa 300 pmol, Hinge 300 pmol, vehicle 89.3 s) was 115.2 s. For the same compound, the “group latency” value (scopolamine treated rats; ip 0.05 mg/kg after scopolamine) was “not different than the scopolamine group”, the “group latency” value (scopolamine treated rats; ip 0.25 mg/kg after scopolamine) was “different than the scopolamine” and the “group latency” value (scopolamine treated rats; ip 0.50 mg/kg after scopolamine, 0.5 mg/kg) was “different than the scopolamine; also recorded: not different than the vehicle control group”. For the same compound, the “time in the target quadrant” value (scopolamine treated rats; ip delivery, each dose group vs scopolamine→PBS) was “Each of the treatment groups was different than the scopolamine”, the “latency … (reversal of scopolamine deficits)” value (scopolamine treated rats; oral 1.25 mg/kg (low dose), days 3-8) was “partially reversed” and the “latency … (reversal of scopolamine deficits)” value (scopolamine treated rats; oral 2 mg/kg/day (high dose), 2 mg/kg/day) was “no different than controls; also recorded: completely overcome the scopolamine deficits; also recorded: completely reversed the scopolamine-dependent learning deficit”. For the same compound, the “time in the target quadrant” value (scopolamine treated rats; oral delivery, both dose groups vs scopolamine→PBS) was “Both of the treatment groups were different than the scopolamine”, the “water maze performance (latency) of aged rats” value (aged rats) was “preformed significantly better in the water maze than untreated rats; also recorded: performed significantly better than untreated controls; also recorded: significantly different than that of the non-treated rats” and the “inhibition of HGF dimerization” value (HGF) was “blocks HGF dimerization”.
